Source: patent US9944670B2, “Gemcitabine derivatives, compositions comprising same and pharmaceutical applications thereof” (HANGZHOU MINSHENG INSTITUTES FOR PHARMA RESEARCH CO., LTD, priority 2013, dated 2018)
Where “and” joins values, the source holds several entries; their conditions need not be identical. Equal values may be shown once. Where a name gives a salt, the structure may show the parent alone.

Assays:
HCT-116 colon cancer = assay: Growth of subcutaneous transplanted tumor in nude mice bearing HCT-116 colon cancer
From the text: Purpose: 4 compounds' influence to the growth of subcutaneous transplanted tumor in nude mice bearing HCT-116 colon cancer
Positive control: Gemcitabine hydrochloride.
Experimental animals: Nude mice, female, 4-5 weeks old, 60 cases.
Cell lines: HCT-116 colon cancer cell.
Modeling: Five mice were inoculated by cell suspension before the experiment, after passaging 4 times in nude mice, prepared model by subcutaneous inoculation using the interpolation block tumor masses.
Route of administration: Gemcitabine hydrochloride group was adminstered by intraperitoneal injection, the rest groups were adminstered by oral gavage.
The adminstered volume: 0.1 ml/10 g
Observation time: Consecutive observation for 15 days after administration, tumor volume was measured twice a week. Stop administration at the 15th day.

MCF-7-ADR = assay: MTT cytotoxic activity against drug-resistant tumor cell line; assay type: cell-based, Human; details: for IC50: NCI/ADR-RES, doxorubicin-resistant human breast cancer cells, 48 hours incubation, MTT, Bliss method
Procedure: Purpose: Compare differences of cytotoxic activity against drug-resistant tumor cell lines between gemcitabine derivatives (Compounds of examples 1-9 of the present invention) and gemcitabine (known compound, as “comparative example” in the table below).
Materials and Methods: Human breast cancer doxorubicin-resistant cell line MCF-7-ADR was cultured in 1640 medium containing 5% fetal calf serum; gemcitabine and its derivative GI-06 were dissolved in DMSO, frozen preserved at −20° C., and diluted by 1640 medium containing 5% fetal calf serum to the appropriate concentration before they were used. The final concentration of DMSO solution was 0.5%. Activity tests: MCF-7-ADR cells in the logarithmic growth phase were seeded 3×10^3 per well in 96-well culture plates. The medium was changed after incubating for 24 hours by adding test solutions at different concentrations, while the control group was added DMSO medium with concentration of 0.5%, and the cells continued to be incubated for 48 hours. Then the cell activity was assayed by MTT. Inhibition rate (%)=([…](absorbance of the blank control group−absorbance of the administration group)/absorbance of the blank control group)×100%; IC50: calculated by Bliss method.

A2780 ovarian cancer = assay: Growth of subcutaneous transplanted tumor in nude mice bearing A2780 ovarian cancer
From the text: Test sample: GI-06; Positive control: gemcitabine hydrochloride
Experimental animals: nude mice, female, 4-5 weeks old, 40 cases.
Cell lines: A2780 ovarian cancer cell, purchased from Shanghai institute of cell biology.
Grouping: When tumor volume grew to 100 mm^3, nude mice which reached standard were randomly divided into five groups, namely solvent control group, gemcitabine hydrochloride group, GI-06 high, medium, low dosage groups, 6 nude mice in each group.
The administration volume: 0.1 ml/10 g
Frequency of administration: Gemcitabine hydrochloride was respectively adminstered twice in the first and third week (D1, D4, D15, D18), 4 times in total; Each GI-06 dosage group was adminstered once a day, 21 days in total.
Animals were sacrificed on the 22nd day, the tumors were weighed.
Statistical Methods: Excel statistical software package, ANOVA analysis.

[1] = 15 mg/kg oral gavage, five consecutive days a week, 10 times in total
[2] = 160 mg/kg intraperitoneal injection, D1, D4, D15, D18
[3] = 160 mg/kg intraperitoneal injection, D1 and D4, twice in total
[4] = high dosage 12 mg/kg oral gavage once a day, 21 days
[5] = low dosage 4 mg/kg oral gavage once a day, 21 days
[6] = medium dosage 8 mg/kg oral gavage once a day, 21 days
[7] = low dosage 5 mg/kg oral gavage, 12 times in total
[8] = medium dosage 10 mg/kg oral gavage, 12 times in total

SMILES | T/C (%) D15 (HCT-116 colon cancer; [1]) | Tumor volume (mm^3) D15 (HCT-116 colon cancer; [1]) | Weight (g) D15 (HCT-116 colon cancer; [1]) | IC50 (MCF-7-ADR) | further results
CC(C)(C)c1cnc(CSc2cnc(NC(=O)CCCCC(=O)Nc3ccn([C@@H]4O[C@H](CO)[C@@H](O)C4(F)F)c(=O)n3)s2)o1 [GI-05, N-(5-(((5-(t-butyl)oxazol-2-yl)methyl)thio)thiazol-2-yl)-N′-(1-((2R,4R,5R)-3,3-difluoro-4-hydroxy-5-(hydroxymethyl)tetrahydrofuran-2-yl)-2-oxo-1,2-dihydro-pyrimidin-4-yl)adipamide] | 56.14% | 935.14 ± 130.33 mm^3 | 18.1 ± 1.2 g | 2.46 µM | 
CC(C)(C)c1cnc(CSc2cnc(NC(=O)C(=O)Nc3ccn([C@@H]4O[C@H](CO)[C@@H](O)C4(F)F)c(=O)n3)s2)o1 [GI-01, N-(5-(((5-(t-butyl)oxazol-2-yl)methyl)thio)thiazol-2-yl)-N′-(1-((2R,4R,5R)-3,3-difluoro-4-hydroxy-5-(hydroxymethyl)tetrahydrofuran-2-yl)-2-oxo-1,2-dihydro-pyrimidin-4-yl)oxamide] |  |  |  | 5.56 µM | 
CC(C)(C)c1cnc(CSc2cnc(NC(=O)CCCCCCC(=O)Nc3ccn([C@@H]4O[C@H](CO)[C@@H](O)C4(F)F)c(=O)n3)s2)o1 [GI-07, N-(5-(((5-(t-butyl)oxazol-2-yl)methyl)thio)thiazol-2-yl)-N′-(1-((2R,4R,5R)-3,3-difluoro-4-hydroxy-5-(hydroxymethyl)tetrahydrofuran-2-yl)-2-oxo-1,2-dihydro-pyrimidin-4-yl)suberamide] |  |  |  | 3.55 µM | 
CC(C)(C)c1cnc(CSc2cnc(NC(=O)CC(=O)Nc3ccn([C@@H]4O[C@H](CO)[C@@H](O)C4(F)F)c(=O)n3)s2)o1 [GI-02, N-(5-(((5-(t-butyl)oxazol-2-yl)methyl)thio)thiazol-2-yl)-N′-(1-((2R,4R,5R)-3,3-difluoro-4-hydroxy-5-(hydroxymethyl)tetrahydrofuran-2-yl)-2-oxo-1,2-dihydro-pyrimidin-4-yl)malonamide] |  |  |  | 4.77 µM | 
Nc1ccn([C@@H]2O[C@H](CO)[C@@H](O)C2(F)F)c(=O)n1 [Gemcitabine hydrochloride, reference compound] |  |  |  |  | Tumor volume (mm^3) D22 (A2780 ovarian cancer; [2]): 59.97 ± 72.33^⋆ mm^3; Tumor volume (mm^3) D15 (HCT-116 colon cancer; [3]): 99.90 ± 55.92⋆ mm^3; Weight (g) D15 (HCT-116 colon cancer; [3]): 20.0 ± 1.5 g; T/C (%) D15 (HCT-116 colon cancer; 160 mg/kg intraperitoneal injection, D1 and D4, twice in total, hydrochloride): 5.83%; T/C (%) D15 (HCT-116 colon cancer; 160 mg/kg intraperitoneal injection, D1 and D4, twice in total, listed as gemcitabine hydrochloride, hydrochloride): 5.8%
CC(C)(C)c1cnc(CSc2cnc(NC(=O)CCC(=O)Nc3ccn([C@@H]4O[C@H](CO)[C@@H](O)C4(F)F)c(=O)n3)s2)o1 [GI-03, N-(5-(((5-(t-butyl)oxazol-2-yl)methyl)thio)thiazol-2-yl)-N′-(1-((2R,4R,5R)-3,3-difluoro-4-hydroxy-5-(hydroxymethyl)tetrahydrofuran-2-yl)-2-oxo-1,2-dihydro-pyrimidin-4-yl)succinamide] |  |  |  | 6.13 µM | 
CC(C)(C)c1cnc(CSc2cnc(NC(=O)CCCCCC(=O)Nc3ccn([C@@H]4O[C@H](CO)[C@@H](O)C4(F)F)c(=O)n3)s2)o1 [GI-06, N-(5-(((5-(t-butyl)oxazol-2-yl)methyl)thio)thiazol-2-yl)-N′-(1-((2R,4R,5R)-3,3-difluoro-4-hydroxy-5-(hydroxymethyl)tetrahydrofuran-2-yl)-2-oxo-1,2-dihydro-pyrimidin-4-yl)pimelamide] | 12% and 12.64% | 208.14 ± 80.53⋆ mm^3 | 18.0 ± 1.5 g | 1.38 µM | T/C (%) D22 (A2780 ovarian cancer; [4]): 0.46%; Tumor volume (mm^3) D22 (A2780 ovarian cancer; [4]): 19.83 ± 35.11^⋆ mm^3; T/C (%) D22 (A2780 ovarian cancer; [5]): 39.55%; Tumor volume (mm^3) D22 (A2780 ovarian cancer; [5]): 1757.57 ± 1306.74^⋆ mm^3; T/C (%) D22 (A2780 ovarian cancer; [6]): 2.11%; Tumor volume (mm^3) D22 (A2780 ovarian cancer; [6]): 92.38 ± 159.91^⋆ mm^3; T/C (%) D15 (HCT-116 colon cancer; [7]): 27% and 27.50%; Tumor volume (mm^3) D15 (HCT-116 colon cancer; [7]): 45.172 ± 214.92⋆ mm^3; Weight (g) D15 (HCT-116 colon cancer; [7]): 17.2 ± 0.8 g; T/C (%) D15 (HCT-116 colon cancer; [8]): 13% and 13.09%; Tumor volume (mm^3) D15 (HCT-116 colon cancer; [8]): 222.43 ± 113.48⋆ mm^3; Weight (g) D15 (HCT-116 colon cancer; [8]): 17.5 ± 1.1 g; inhibitory activity against MCF-7-ADR proliferation (in words) (MCF-7-ADR; compared with gemcitabine): strongest anti-tumor activity
CC(C)(C)c1cnc(CSc2cnc(NC(=O)CCCC(=O)Nc3ccn([C@@H]4O[C@H](CO)[C@@H](O)C4(F)F)c(=O)n3)s2)o1 [GI-04, N-(5-(((5-(t-butyl)oxazol-2-yl)methyl)thio)thiazol-2-yl)-N′-(1-((2R,4R,5R)-3,3-difluoro-4-hydroxy-5-(hydroxymethyl)tetrahydrofuran-2-yl)-2-oxo-1,2-dihydro-pyrimidin-4-yl)glutaramide] | 60.9% | 1008.78 ± 174.29 mm^3 | 19.9 ± 1.2 g | 3.15 µM | 
CC(C)(C)c1cnc(CSc2cnc(NC(=O)CCCCCCCCC(=O)Nc3ccn([C@@H]4O[C@H](CO)[C@@H](O)C4(F)F)c(=O)n3)s2)o1 [GI-09, N-(5-(((5-(t-butyl)oxazol-2-yl)methyl)thio)thiazol-2-yl)-N′-(1-((2R,4R,5R)-3,3-difluoro-4-hydroxy-5-(hydroxymethyl)tetrahydrofuran-2-yl)-2-oxo-1,2-dihydro-pyrimidin-4-yl)sebacamide] | 43.26% | 724.50 ± 158.19 mm^3 | 18.6 ± 1.4 g | 2.66 µM | 
CC(C)(C)c1cnc(CSc2cnc(NC(=O)CCCCCCCC(=O)Nc3ccn([C@@H]4O[C@H](CO)[C@@H](O)C4(F)F)c(=O)n3)s2)o1 [GI-08, N-(5-(((5-(t-butyl)oxazol-2-yl)methyl)thio)thiazol-2-yl)-N′-(1-((2R,4R,5R)-3,3-difluoro-4-hydroxy-5-(hydroxymethyl)tetrahydrofuran-2-yl)-2-oxo-1,2-dihydro-pyrimidin-4-yl)azelamide] |  |  |  | 3.29 µM | 
Nc1ccn([C@@H]2O[C@H](CO)[C@@H](O)C2(F)F)c(=O)n1 [gemcitabine] |  |  |  | > 10 µM | T/C (%) D22 (A2780 ovarian cancer; [2]): 1.32%
